Consider 13 compounds from patent US10780090B2, “Heteroaryl compounds useful as inhibitors of SUMO activating enzyme” (Millennium Pharmaceuticals, Inc., priority 2014, dated 2020).

For the assay, the target named is recombinant human SAE enzyme (Homo sapiens (Human), UniProt Q9UBT2). Briefly: SAE HTRF enzyme assay. The class given is biochemical. Particulars: for Percent Inhibition: Concentration 0.111 μM; for IC50: class symbols A/B/C. The method, then:
Example 215: SAE HTRF enzyme assay
The SAE enzymatic reaction totals 50 μl and contains 50 mM HEPES Hemisodium (pH 7.5), 0.05% BSA, 5 mM MgCl2, 0.5 μM ATP, 250 μM GSH, 0.01 μM Ubc9-GST, 0.125 μM Sumo-Flag and 0.11 nM recombinant human SAE enzyme. The enzymatic reaction mixture, with and without inhibitor, Is incubated at 24° C. for 105 min in a 384-well plate before termination with […] of Stop/Detection buffer (0.1M HEPES Hemisodium pH 7.5, 0.05% Tween20, 20 mM EDTA, 410 mM KF, 0.53 nM Europium-Cryptate labeled monoclonal anti-Flag M2 Antibody (CisBio International) and 8.125 μg/ml PHYCOLINK goat anti-GST allophycocyanin (XL-APC) antibody (Prozyme)). After incubation for 2 hours at 24° C., quantification of FRET is performed on the Pherostar™ (BMG Labtech). Percentage inhibition values at a single concentration or enzyme inhibition (IC50) values are determined from those curves. One skilled in the art will appreciate that the values generated either as percentage inhibition at a single concentration or IC50 values are subject to experimental variation.
On the technique in general: Time-resolved FRET reads energy transfer from a long-lived donor to a nearby acceptor.

Some results are limits rather than exact numbers.

Chain of recombinant human SAE enzyme (Q9UBT2 whole entry): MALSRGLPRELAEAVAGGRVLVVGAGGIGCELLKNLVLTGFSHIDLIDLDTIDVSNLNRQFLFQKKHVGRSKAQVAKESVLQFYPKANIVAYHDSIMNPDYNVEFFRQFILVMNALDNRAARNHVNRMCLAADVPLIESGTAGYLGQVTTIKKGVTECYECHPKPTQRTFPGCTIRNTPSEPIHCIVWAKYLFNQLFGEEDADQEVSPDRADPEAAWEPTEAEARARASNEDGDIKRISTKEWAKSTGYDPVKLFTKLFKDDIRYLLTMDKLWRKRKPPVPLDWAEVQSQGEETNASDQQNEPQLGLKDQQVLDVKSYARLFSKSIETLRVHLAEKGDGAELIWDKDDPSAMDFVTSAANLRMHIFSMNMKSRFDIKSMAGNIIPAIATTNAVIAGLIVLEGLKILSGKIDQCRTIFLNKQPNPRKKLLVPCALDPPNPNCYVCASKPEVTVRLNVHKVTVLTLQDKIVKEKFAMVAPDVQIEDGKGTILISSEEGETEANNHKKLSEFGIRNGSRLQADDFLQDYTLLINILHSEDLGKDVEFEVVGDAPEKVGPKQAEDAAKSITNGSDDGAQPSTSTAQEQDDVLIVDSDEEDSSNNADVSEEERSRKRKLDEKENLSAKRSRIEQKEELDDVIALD
Chain of recombinant human SAE enzyme (Q9UBE0 whole entry partner): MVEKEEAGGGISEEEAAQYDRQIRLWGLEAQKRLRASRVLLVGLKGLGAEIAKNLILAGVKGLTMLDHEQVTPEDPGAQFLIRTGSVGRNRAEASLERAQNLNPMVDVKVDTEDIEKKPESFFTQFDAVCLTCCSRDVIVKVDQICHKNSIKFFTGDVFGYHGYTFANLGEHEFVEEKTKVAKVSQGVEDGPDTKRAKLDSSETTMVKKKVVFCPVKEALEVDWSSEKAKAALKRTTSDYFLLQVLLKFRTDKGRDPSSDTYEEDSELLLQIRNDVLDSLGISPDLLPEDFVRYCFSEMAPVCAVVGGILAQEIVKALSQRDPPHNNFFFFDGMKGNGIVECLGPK

Turning to `CN[C@H](c1cccc(Cl)c1)c1csc(C(=O)c2cncnc2N[C@@H]2C[C@H](COS(N)(=O)=O)[C@@H](O)C2)c1` (mixture of isomers) [I-47, [(1R,2S,4R)-4-{[5-({4-[(R)-(3-chlorophenyl)(methylamino)methyl]-2-thienyl}carbonyl)pyrimidin-4-yl]amino}-2-hydroxycyclopentyl]methyl sulfamate and [(1R,2S,4R)-4-{[5-({4-[(S)-(3-chlorophenyl)(methylamino)methyl]-2-thienyl}carbonyl)pyrimidin-4-yl]amino}-2-hydroxycyclopentyl]methyl sulfamate], the “Percent Inhibition” value came to 97 and the half-inhibitory concentration (IC50) was less than 10 nM.

With `NS(=O)(=O)OCC1CC(Nc2ncncc2C(=O)c2cc(C(O)(CCO)c3cccc(Cl)c3)c(Cl)s2)CC1O` (mixture of isomers) [I-49, [(1R,2S,4R)-4-{[5-({5-Chloro-4-[(1S)-1-(3-chlorophenyl)-1,3-dihydroxypropyl]-2-thienyl}carbonyl)pyrimidin-4-yl]amino}-2-hydroxycyclopentyl]methyl sulfamate and [(1R,2S,4R)-4 {[5-({5-Chloro-4[(1R)-1-(3-chlorophenyl)-1,3-dihydroxypropyl]-2-thienyl}carbonyl)pyrimidin-4-yl]amino}-2-hydroxycyclopentyl]methyl sulfamate], the “Percent Inhibition” value stood at 98 and the IC50 was less than 10 nM.

In the case of `NS(=O)(=O)OCC1CC(Nc2ncncc2C(=O)c2cc(C(O)(c3cccc(Cl)c3)C3CC3)cs2)CC1O` (mixture of isomers) [I-50, [(1R,2S,4R)-4-{[5-({4-[(S)-(3-chlorophenyl)(cyclopropyl)hydroxymethyl]-2-thienyl}carbonyl)pyrimidin-4-yl]amino}-2-hydroxycyclopentyl]methyl sulfamate and [(1R,2S,4R)-4-{[5-({4-[(R)-(3-chlorophenyl)(cyclopropyl)hydroxymethyl]-2-thienyl}carbonyl)pyrimidin-4-yl]amino}-2-hydroxycyclopentyl]methyl sulfamate], the “Percent Inhibition” value was 99 and the IC50 was less than 10 nM.

For `C[C@](O)(c1csc(C(=O)c2cncnc2N[C@@H]2C[C@H](COS(N)(=O)=O)[C@@H](O)C2)c1)c1cccc(Br)n1` (mixture of isomers) [I-54, [(1R,2S,4R)-4-{[5-({4-[(1S)-1-(6-bromopyridin-2-yl)-1-hydroxyethyl]-2-thienyl}carbonyl)pyrimidin-4-yl]amino}-2-hydroxycyclopentyl]methyl sulfamate and [(1R,2S,4R)-4-{[5-({4-[(1R)-1-(6-bromopyridin-2-yl)-1-hydroxyethyl]-2-thienyl}carbonyl)pyrimidin-4-yl]amino}-2-hydroxycyclopentyl]methyl sulfamate], the “Percent Inhibition” value was found to be 99 and the 50% inhibitory concentration (IC50) was less than 10 nM.

Take `NS(=O)(=O)OC[C@H]1C[C@@H](Nc2ncncc2C(=O)c2cc([C@H](O)c3ccccc3)c(Cl)s2)C[C@@H]1O` (mixture of isomers) [I-56, [(1R,2S,4R)-4-{[5-({5-chloro-4-[(R)-hydroxy(phenyl)methyl]-2-thienyl}carbonyl)pyrimidin-4-yl]amino}-2-hydroxycyclopentyl]methyl sulfamate and [(1R,2S,4R)-4-{[5-({5-chloro-4-[(S)-hydroxy(phenyl)methyl]-2-thienyl}carbonyl)pyrimidin-4-yl]amino}-2-hydroxycyclopentyl]methyl sulfamate]: the “Percent Inhibition” value stood at 98 and the concentration for half-maximal inhibition (IC50) was less than 10 nM.

As to `C[C@@](O)(c1ccccc1)c1coc(C(=O)c2cncnc2N[C@@H]2C[C@H](COS(N)(=O)=O)[C@@H](O)C2)c1.C[C@](O)(c1ccccc1)c1coc(C(=O)c2cncnc2N[C@@H]2C[C@H](COS(N)(=O)=O)[C@@H](O)C2)c1` (mixture of isomers) [I-58, {(1R,2S,4R)-2-hydroxy-4-[(5-{4-[(1S)-1-hydroxy-1-phenylethyl]-2-furoyl}pyrimidin-4-yl)amino]cyclopentyl}methyl sulfamate and {(1R,2S,4R)-2-hydroxy-4-[(5-{4-[(1R)-1-hydroxy-1-phenylethyl]-2-furoyl}pyrimidin-4-yl)amino]cyclopentyl}methyl sulfamate], the “Percent Inhibition” value was found to be 96 and the concentration for half-maximal inhibition (IC50) was less than 10 nM.

Regarding `COc1ccc(Cl)cc1[C@@H](O)c1cc(C(=O)c2cncnc2N[C@@H]2C[C@H](COS(N)(=O)=O)[C@@H](O)C2)sc1Cl` (mixture of isomers) [I-63, [(1R,2S,4R)-4-{[5-({5-chloro-4-[(R)-(5-chloro-2-methoxyphenyl)(hydroxy)methyl]-2-thienyl}carbonyl)pyrimidin-4-yl]amino}-2-hydroxycyclopentyl]methyl sulfamate and [(1R,2S,4R)-4-{[5-({5-chloro-4-[(S)-(5-chloro-2-methoxyphenyl)(hydroxy)methyl]-2-thienyl}carbonyl)pyrimidin-4-yl]amino}-2-hydroxycyclopentyl]methyl sulfamate], the “Percent Inhibition” value was found to be 97 and the concentration for half-maximal inhibition (IC50) was less than 10 nM.

Consider `NS(=O)(=O)OC[C@H]1C[C@@H](Nc2ncncc2C(=O)c2cc([C@]3(c4cccc(Cl)c4)CCO3)c(Cl)s2)C[C@@H]1O` (mixture of isomers) [I-67, [(1R,2S,4R)-4-{[5-({5-chloro-4-[(2R)-2-(3-chlorophenyl)oxetan-2-yl]-2-thienyl}carbonyl)pyrimidin-4-yl]amino}-2-hydroxycyclopentyl]methyl sulfamate and [(1R,2S,4R)-4-{[5-({5-chloro-4-[(2S)-2-(3-chlorophenyl)oxetan-2-yl]-2-thienyl}carbonyl)pyrimidin-4-yl]amino}-2-hydroxycyclopentyl]methyl sulfamate], for which the “Percent Inhibition” value came to 99 and the 50% inhibitory concentration (IC50) is less than 10 nM.

Turning to `Cc1sc(C(=O)c2cncnc2NC2CC(O)C(COS(N)(=O)=O)C2)cc1[S+]([O-])c1ccccc1` (mixture of isomers) [I-68, [(1R,2S,4R)-2-hydroxy-4-{[5-({5-methyl-4-[(R)-phenylsulfinyl]-2-thienyl}carbonyl)pyrimidin-4-yl]amino}cyclopentyl]methyl sulfamate and [(1R,2S,4R)-2-hydroxy-4-{[5-({5-methyl-4-[(S)-phenylsulfinyl]-2-thienyl}carbonyl)pyrimidin-4-yl]amino}cyclopentyl]methyl sulfamate], the “Percent Inhibition” value was 98 and the IC50 was less than 10 nM.

On to `COc1ccccc1[C@@H](O)c1cc(C(=O)c2cncnc2N[C@@H]2C[C@H](COS(N)(=O)=O)[C@@H](O)C2)sc1Cl` (mixture of isomers) [I-85, [(1R,2S,4R)-4-{[5-({5-chloro-4-[(R)-hydroxy(2-methoxyphenyl)methyl]-2-thienyl}carbonyl)pyrimidin-4-yl]amino}-2-hydroxycyclopentyl]methyl sulfamate and [(1R,2S,4R)-4-{[5-({5-chloro-4-[(S)-hydroxy(2-methoxyphenyl)methyl]-2-thienyl}carbonyl)pyrimidin-4-yl]amino}-2-hydroxycyclopentyl]methyl sulfamate], for which the “Percent Inhibition” value is reported as 97 and the half-maximal inhibitory concentration (IC50) was less than 10 nM.

On to `NS(=O)(=O)OC[C@H]1C[C@@H](Nc2ncncc2C(=O)c2cc([C@@H](O)c3ccccc3Cl)c(Cl)s2)C[C@@H]1O` (mixture of isomers) [I-86, [(1R,2S,4R)-4-{[5-({5-chloro-4-[(S)-(2-chlorophenyl)(hydroxy)methyl]-2-thienyl}carbonyl)pyrimidin-4-yl]amino}-2-hydroxycyclopentyl]methyl sulfamate and [(1R,2S,4R)-4-{[5-({5-chloro-4-[(R)-(2-chlorophenyl)(hydroxy)methyl]-2-thienyl}carbonyl)pyrimidin-4-yl]amino}-2-hydroxycyclopentyl]methyl sulfamate], for which the “Percent Inhibition” value worked out at 96 and the IC50 is less than 10 nM.

In the case of `CO[C@H](c1cccc(Cl)c1)c1cc(C(=O)c2cncnc2N[C@@H]2C[C@H](COS(N)(=O)=O)[C@@H](O)C2)sc1Cl` (mixture of isomers) [I-90, [(1R,2S,4R)-4-{[5-({5-chloro-4-[(R)-(3-chlorophenyl)(methoxy)methyl]-2-thienyl}carbonyl)pyrimidin-4-yl]amino}-2-hydroxycyclopentyl]methyl sulfamate and [(1R,2S,4R)-4-{[5-({5-chloro-4-[(S)-(3-chlorophenyl)(methoxy)methyl]-2-thienyl}carbonyl)pyrimidin-4-yl]amino}-2-hydroxycyclopentyl]methyl sulfamate], the “Percent Inhibition” value is listed as 97 and the 50% inhibitory concentration (IC50) was less than 10 nM.

Turning to `CN[C@@H](c1cccc(Cl)c1)c1cc(C(=O)c2cncnc2N[C@@H]2C[C@H](COS(N)(=O)=O)[C@@H](O)C2)sc1Cl.CN[C@H](c1cccc(Cl)c1)c1cc(C(=O)c2cncnc2N[C@@H]2C[C@H](COS(N)(=O)=O)[C@@H](O)C2)sc1Cl` (mixture of isomers) [I-95, [(1R,2S,4R)-4-{[5-({5-Chloro-4-[(S)-(3-chlorophenyl)(methylamino)methyl]-2-thienyl}carbonyl)pyrimidin-4-yl]amino}-2-hydroxycyclopentyl]methyl sulfamate and [(1R,2S,4R)-4 {[5-({5-Chloro-4-[(R)-(3-chlorophenyl)(methylamino)methyl]-2-thienyl}carbonyl)pyrimidin-4-yl]amino}-2-hydroxycyclopentyl]methyl sulfamate], the “Percent Inhibition” value was found to be 97 and the IC50 was less than 10 nM.

The term IC50 denotes the concentration that gives 50% inhibition.
